Legend:
[1] = in vitro; details: mouse, c2c12 myoblast cells
[2] = test system: C2C12 myoblast cell line (C2C12 myoblast 세포주); assay: in vitro
[3] = test system: Akt phosphorylation (Akt 인산화); assay: Akt phosphorylation (western blotting) in palmitic acid-induced insulin-resistant C2C12 myotubes (Example 2); type: cell-based, mouse; details: single agent; general statement
[4] = test system: C2C12 myotube cell line (C2C12 myotube 세포주); assay: Glucose uptake (2-NBDG, Glucose uptake cell-based assay kit) in palmitic acid-induced insulin-resistant C2C12 myotubes (Example 3); set-up: species or system mouse; details: single agent; general statement

Row | SMILES | viability at 12.5 µM [1] [%] | cytotoxicity (in words) [2] | viability at 25 µM [1] [%] | improvement of insulin resistance (in words) [3] | promotion of glucose uptake (in words) [4]
1 | C[C@H]1[C@H](OC(=O)CCC(=O)O)O[C@@H]2O[C@@]3(C)CC[C@H]4[C@H](C)CC[C@@H]1[C@@]24OO3 [아르테수네이트, 아르테수네이트(artesunate)] | ~80 | 세포 독성이 없음 |  |  | 
2 | CCN(CC)Cc1cc(Nc2ccnc3cc(Cl)ccc23)ccc1O [아모디아퀸, 아모디아퀸(amodiaquine)] |  | 세포 독성이 없음 | ~80 | 미미한 수준에 불과하다 | 미미한 수준에 불과하다

Reference: patent KR20220022782A, “아모디아퀸 및 아르테수네이트계 약물을 유효성분으로 함유하는 제2형 당뇨병 예방 또는 치료용 약학적 조성물” (priority 2020, dated 2022)
